Experimental data reported in patent publication US20260355199A1, “COMPOSITIONS AND METHODS FOR TREATING OR PREVENTING NONALCOHOLIC STEATOHEPATITIS (NASH), ANOREXIA, DEPRESSION, ENDOMETRIOSIS, AND OTHER DISEASES OR DISORDERS” (priority 2022, published 2026).

What was measured:
OC-bearing mice = test: Ovarian cancer (ID8-luc2)-induced anorexia model; format: in vivo; settings: 0.05 mg/mouse once a week i.p.
Source text: Furthermore, the present studies use the luciferase-expressing mouse ovarian surface epithelial cancer cell line ID8-luc2 (Liao J B et al., 2015, J Immunother Cancer, 3:16) that was originally derived from C57BL/6 mice (Roby K F et al., 2000, Carcinogenesis, 21:585-591). ID8-luc2 allow in vivo imaging of intraperitoneal tumors to monitor tumor growth (Udumula M P et al., 2021, Mol Metab., 53:101272; Liao J B et al., 2015, J Immunother Cancer, 3:16). Agrp-IRES-Cre::LSL-Cas9-GFP mice (C57BL/6 background) that express GFP specifically in AgRP neurons are used, hereafter called AgRP-GFP. […] Tumors were readily detected by bioluminescent imaging 10-14 days after inoculation (Udumula M P et al., 2021, Mol Metab., 53:101272; Liao J B et al., 2015, J Immunother Cancer, 3:16). Visible ascites (detected by abdominal swelling) developed at ~3 weeks following implantation (Roby K F et al., 2000, Carcinogenesis, 21:585-591). […] Bioluminescence signals of the tumor are recorded using the Xenogen IVIS system. Food intake is monitored manually on a daily basis and energy expenditure is measured using a computer-controlled indirect calorimetry system.
Additional studies test whether Bobcat339 alleviates OC-induced anorexia and hypermetabolism. […] Food intake are monitored daily and energy expenditure are determined once a week for three weeks before euthanasia. […]

NPY and VGAT = NPY and VGAT expression in leptin-treated GT1-7 cells; format: cell-based, mouse; settings: TET3-dependent manner
Method: Mouse GT1-7 hypothalamic neuronal cell line (Sigma-Aldrich, SCC116), human SH-SY5Y neuronal blastoma cell line (ATCC, CRL-2266), and embryonic mouse hypothalamus cell line N11 (mHypoE-N11) (Cedarlane, CLU107) were purchased and cultured according to the manufacturers' instructions. For siRNA transfection in a 24-well plate scale, cells were seeded at a density of 2×10^5 cells/well the day before transfection. To prepare siRNA transfection solution for each well of cells, 5 pmol of NT siRNA (non-targeting control siRNA, AM4636, Ambion), Tet3 siRNA (siRNA specifically targeting mouse Tet3, 4390815/s101483, Ambion), or TET3 siRNA (siRNA specifically targeting human TET3, 4392420/s47238, Ambion) (Cao et al., 2019, Oncogene, 38:5356-5366; Xu et al., 2020, Cell Rep., 30:1310-1318) were mixed with 25 μl of OPTI-MEM (Gibco, 31985-070) by gentle pipetting (Cao, T. et al., 2019, Oncogene, 38:5356-5366; Xu, Y. et al., 2020, Cell Reports, 30:1310-1318 e5). In parallel, 1.5 μl of Lipofectamine RNAiMAX (Invitrogen, 13778-150) was mixed with 25 μl of OPTI-MEM by gentle pipetting. Following 5 min of incubation at room temperature, the resulting 50 μl of transfection solution was added to one well of cells containing 1 ml culture media. […]

Molecule | OC progression (OC-bearing mice) | cancer anorexia and hypermetabolism (OC-bearing mice) | NPY and VGAT expression (NPY and VGAT)
Nc1nc(=O)n(-c2cccc(-c3ccccc3)c2)cc1Cl [Bobcat339, 4-Amino-1-[1,1′-biphenyl]-3-yl-5-chloro-2(1H)-pyrimidinone] | decreased OC progression | not only prevents cancer anorexia and hypermetabolism from developing but eliminates it after it is established | 
leptin: adipose hormone; mouse leptin L3772-1MG or human leptin L4146-1MG, Sigma Aldrich |  |  | negatively affected the expression of NPY and VGAT
